Test results published in ChEMBL document CHEMBL1136278, “Synthesis and anticancer effect of B-ring trifluoromethylated flavonoids” (Bioorg Med Chem Lett, 2003).

System: SGC-7901
Experiment: In vitro anti-cancer activity against SGC-7901 cell
Assay type: functional, cell-based
Details: Homo sapiens

Row | Structure (SMILES) | IC50 [µM]
1 | COc1ccc2c(c1)O/C(=C\c1ccc(C(F)(F)F)cc1)C2=O | 21.2
2 | CCCCCCCOc1cc(OCCCCCCC)c2c(=O)cc(-c3ccc(C(F)(F)F)cc3)oc2c1 | 30.8
3 | O=c1cc(-c2ccc(C(F)(F)F)cc2)oc2cc(O)ccc12 | 17.8
4 | CCCCCCCCOc1cc(OCCCCCCCC)c2c(=O)cc(-c3ccc(C(F)(F)F)cc3)oc2c1 | 18.1
5 | CCOc1cc(OCC)c2c(=O)cc(-c3ccc(C(F)(F)F)cc3)oc2c1 | 44
6 | CCOc1ccc2c(=O)cc(-c3ccc(C(F)(F)F)cc3)oc2c1 | 28.5
7 | CCOc1ccc2c(c1)O/C(=C\c1ccc(C(F)(F)F)cc1)C2=O | 15.6
8 | CCOc1cc(OCC)c2c(=O)c(CC)c(-c3ccc(C(F)(F)F)cc3)oc2c1 | 72.5
9 | CCCCCCCCCCOc1cc(OCCCCCCCCCC)c2c(=O)cc(-c3ccc(C(F)(F)F)cc3)oc2c1 | 9.02
10 | CCCOc1cc(OCCC)c2c(=O)c(CCC)c(-c3ccc(C(F)(F)F)cc3)oc2c1 | 8.64
11 | CC(=O)Oc1c(C(F)(F)F)c(O)c2c(=O)cc(-c3ccccc3)oc2c1C(F)(F)F | 8.6
12 | O=C1/C(=C/c2ccc(C(F)(F)F)cc2)Oc2cc(OCc3ccccc3)ccc21 | 14.7
13 | COc1cc(OC)c2c(=O)c(C)c(-c3ccc(C(F)(F)F)cc3)oc2c1 | 10.1

The next molecules have a lower IC50 than those just listed; values first:

Row | IC50 [µM] | Structure (SMILES)
14 | 5.26 | C=CCOc1ccc2c(=O)cc(-c3ccc(C(F)(F)F)cc3)oc2c1
15 | 5.61 | CCCOc1ccc2c(=O)cc(-c3ccc(C(F)(F)F)cc3)oc2c1
16 | 5 | O=c1cc(-c2ccc(C(F)(F)F)cc2)oc2cc(OCc3ccccc3)cc(OCc3ccccc3)c12
17 | 5.9 | COc1cc(O)c2c(=O)cc(-c3ccccc3)oc2c1C(F)(F)F
18 | 4.31 | O=C1/C(=C/c2ccc(C(F)(F)F)cc2)Oc2cc(O)ccc21
19 | 4.16 | CCCCCCCCOc1ccc2c(=O)cc(-c3ccc(C(F)(F)F)cc3)oc2c1
20 | 2.7 | CCCOc1cc(OCCC)c2c(=O)cc(-c3ccc(C(F)(F)F)cc3)oc2c1
21 | 4.37 | COc1cc(OC)c2c(=O)cc(-c3ccc(C(F)(F)F)cc3)oc2c1
22 | 6.62 | O=c1cc(-c2ccc(C(F)(F)F)cc2)oc2cc(O)cc(O)c12
23 | 5.35 | CCCCCCCOc1ccc2c(c1)O/C(=C\c1ccc(C(F)(F)F)cc1)C2=O
24 | 8.28 | COc1ccc2c(=O)cc(-c3ccc(C(F)(F)F)cc3)oc2c1
25 | 3.05 | C=CCOc1ccc2c(c1)O/C(=C\c1ccc(C(F)(F)F)cc1)C2=O
